Results as given in PubChem BioAssay (NCI).
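Step 1: Grow cells in 96-well plates. Step 2: Expose to compound for 48 hours at 5 concentrations. Step 3: Interpolate endpoints linearly; if unreached, use highest concentration. TGI: total growth inhibition.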

Assays:
Test in all cases: growth of human tumour cells (NCI), 48 h
SW-620 colon = tested on: SW-620 colon
KM12 colon = tested on: KM12 colon
NCI-H522 lung = tested on: NCI-H522 lung
SK-MEL-28 melanoma = tested on: SK-MEL-28 melanoma
SK-MEL-5 melanoma = tested on: SK-MEL-5 melanoma
MOLT-4 leukemia = tested on: MOLT-4 leukemia
NCI-H226 lung = tested on: NCI-H226 lung
NCI-H460 lung = tested on: NCI-H460 lung
MALME-3M melanoma = tested on: MALME-3M melanoma
CAKI-1 renal = tested on: CAKI-1 renal

SMILES	TGI (SW-620 colon)	TGI (KM12 colon)	TGI (NCI-H522 lung)	TGI (SK-MEL-28 melanoma)	TGI (SK-MEL-5 melanoma)	TGI (MOLT-4 leukemia)	TGI (NCI-H226 lung)	TGI (NCI-H460 lung)	TGI (MALME-3M melanoma)	TGI (CAKI-1 renal)
COc1cc(CCc2cccnc2)cc(OC)c1OC	> 100 µM	> 100 µM	> 100 µM	> 100 µM	> 100 µM	> 100 µM	> 100 µM	> 100 µM	> 100 µM	> 100 µM
Nc1nc(N)c2ncn(CC3CCC(CO)C3)c2n1 (centres undefined)	> 100 µM	> 100 µM		> 100 µM	> 100 µM	> 100 µM	> 100 µM			> 100 µM
C=C(C)C(=O)CC[C@@H](C)[C@H]1[C@@H](OC2OC(CO)C(O)C(O)C2O)C[C@@]2(C)[C@@H]3C[C@H](O)C4C(C)(C)[C@@H](OC5OC(CO)C(O)C(O)C5O)CC[C@@]45C[C@@]35CC[C@]12C (some centres undefined)	> 100 µM	> 100 µM	> 100 µM	> 100 µM	> 100 µM	> 100 µM		> 100 µM	> 100 µM	> 100 µM
CN(C)CC(/C(Cc1ccccc1)=N\NC(=O)C[n+]1ccccc1)c1ccccc1 (centres undefined)		> 100 µM	> 100 µM	> 100 µM	> 100 µM	> 100 µM	> 100 µM	> 100 µM	> 100 µM	> 100 µM
CC(=O)NC1C(OCc2ccccc2)OC(CO)C(O)C1OCC(=O)NC(C)C(=O)NC(CCC(=O)NCCCCNc1ccc([N+](=O)[O-])c2[nH]c3ccccc3c(=O)c12)C(N)=O (centres undefined)	> 100 µM	> 100 µM		> 100 µM			> 100 µM	> 100 µM	> 100 µM	> 100 µM
[O-]/[N+](=C\c1ccccc1)[C@H](COCc1ccccc1)c1ccccc1	> 100 µM	> 100 µM	> 100 µM	> 100 µM	> 100 µM	> 100 µM		> 100 µM	> 100 µM	
CC[C@@]1(O)C(=O)OCc2c1cc1n(c2=O)Cc2c-1nc1ccccc1c2/C=N\NC(=O)C(N)CC(C)C (some centres undefined)	> 40.2 µM		1.6 µM	> 100 µM	0.0807 µM	0.106 µM	0.975 µM	1.26 µM	7.31 µM	0.181 µM
O=C1c2ccccc2C2CNC1(O)c1ccccc12 (centres undefined)	> 100 µM	> 100 µM	> 100 µM	> 100 µM	> 100 µM	> 100 µM	> 100 µM	> 100 µM	> 100 µM	> 100 µM
O=C1Oc2ccccc2C(=O)/C1=C/N1C(=O)N/C(=C\c2ccccc2O)C1=O	> 100 µM	> 100 µM	> 100 µM	> 100 µM	> 100 µM	> 100 µM	> 100 µM	> 100 µM	> 100 µM	> 100 µM
O=C(Cn1c(=O)oc2ccc(C(=O)c3ccc(F)cc3)cc21)c1ccc([N+](=O)[O-])cc1	> 100 µM	87 µM	80.4 µM	> 100 µM	34 µM	> 100 µM	> 100 µM	> 100 µM	> 100 µM	> 100 µM
Cc1ccc(S(=O)(=O)c2scc(-c3ccccc3)c2C)cc1	> 100 µM	> 100 µM	> 100 µM	> 100 µM	> 100 µM	> 100 µM	> 100 µM	> 100 µM	> 100 µM	> 100 µM
